In paper PMC5601625, “Defining a therapeutic window for kinase inhibitors in leukemia to avoid neutropenia” (Oncotarget, 2017):
Where two headings read alike, the source gives them in different places.

Assays:
K562 = assay: Cell Titer Glo cell viability assay, 48 h; type: cell-based, human; details: 48 h, mean of 2 independent experiments, 0 = less than 10 nM, cell line not given, read-out: IC50 of inhibitors on cell lines, m (mean)
Description: (§1) The activity of the kinase inhibitor collection against a panel of human leukemia cell lines was determined in cell viability assays run over 48 h using the Cell Titer Glo reagent.
(§2) Figure 1 Effects of kinase inhibition on the proliferation of leukemia cells A. Human leukemia cell lines were treated with duplicate serial dilutions of kinase inhibitors and the effect on cell viability was determined by Cell Titer Glo assay after 48 hours. […] HL-60 cells were treated with serial dilutions of mTor/PI3K B. and MEK C. inhibitors and the effect on cell viability was determined after 48 hours. Data shown is the mean ± SEM of 3 independent experiments.
(§3) Leukemia and lymphoma cell lines were grown in RPMI containing 10% FCS. […] Cell lines are routinely tested for mycoplasma and genotyped by short tandem repeating (STR) profiling to confirm identity.
(§4) Compounds were obtained from SynMedChem and dissolved at […] in DMSO. Serial 2-fold dilutions of each compound were prepared in DMSO using a liquid handling robot (Janus, Perkin Elmer). Each dilution (100nL) was transferred to duplicate tissue culture plates containing 50 μL of media containing 5 × 10^3 cells using a 384 well pin tool. Cells were incubated for 48 h and cell viability was determined using Cell Titer Glow reagents as described by the manufacturer (Promega). Data was acquired using a luminescent plate reader (Envision, Perkin Elmer) and analysed using Activity Base (IDBS, Guilford, UK) and visualised using Spotfire (TIBCO, Palo Alto, CA) as described previously. Each cell line was assayed in independent experiments on at least two occasions. […] Serial 2-fold dilutions of each compound were prepared in media containing 0.2% DMSO and 50 μl of each dilution was added to 10^4 cells in 50 μl of media. Cells were incubated for 48 h and cell viability was determined using Cell Titer Glow assay as described above.

EOL-1 = assay: Cell Titer Glo cell viability assay, 48 h; type: cell-based, human; details: 48 h, mean of 2 independent experiments, 0 = less than 10 nM, cell line not given, read-out: IC50 of inhibitors on cell lines, m (mean)
Description: as §1, §2, §3, §4

THP-1 = assay: Cell Titer Glo cell viability assay, 48 h; type: cell-based, human; details: 48 h, mean of 2 independent experiments, 0 = less than 10 nM, cell line not given, read-out: IC50 of inhibitors on cell lines, m (mean)
Description: as §1, §2, §3, §4

JURKAT = assay: Cell Titer Glo cell viability assay, 48 h; type: cell-based, human; details: 48 h, mean of 2 independent experiments, 0 = less than 10 nM, cell line not given, read-out: IC50 of inhibitors on cell lines, m (mean)
Description: as §1, §2, §3, §4

KU-812 = assay: Cell Titer Glo cell viability assay, 48 h; type: cell-based, human; details: 48 h, mean of 2 independent experiments, 0 = less than 10 nM, cell line not given, read-out: IC50 of inhibitors on cell lines, m (mean)
Description: as §1, §2, §3, §4

HL-60 = assay: Cell Titer Glo cell viability assay, 48 h; type: cell-based, human; details: 48 h, mean of 2 independent experiments, 0 = less than 10 nM, cell line not given, read-out: IC50 of inhibitors on cell lines, m (mean)
Description: as §1, §2, §3, §4

MOLT4 = assay: Cell Titer Glo cell viability assay, 48 h; type: cell-based, human; details: 48 h, mean of 2 independent experiments, 0 = less than 10 nM, cell line not given, read-out: IC50 of inhibitors on cell lines, m (mean)
Description: as §1, §2, §3, §4

U937 = assay: Cell Titer Glo cell viability assay, 48 h; type: cell-based, human; details: 48 h, mean of 2 independent experiments, 0 = less than 10 nM, cell line not given, read-out: IC50 of inhibitors on cell lines, m (mean)
Description: as §1, §2, §3, §4

OCI-AML3 = assay: Cell Titer Glo cell viability assay, 48 h; type: cell-based, human; details: 48 h, mean of 2 independent experiments, 0 = less than 10 nM, cell line not given, read-out: IC50 of inhibitors on cell lines, m (mean)
Description: as §1, §2, §3, §4

HEL.92.1.7 = assay: Cell Titer Glo cell viability assay, 48 h; type: cell-based, human; details: 48 h, mean of 2 independent experiments, 0 = less than 10 nM, cell line not given, read-out: IC50 of inhibitors on cell lines, m (mean)
Description: as §1, §2, §3, §4

MEG-01 = assay: Cell Titer Glo cell viability assay, 48 h; type: cell-based, human; details: 48 h, mean of 2 independent experiments, 0 = less than 10 nM, cell line not given, read-out: IC50 of inhibitors on cell lines, m (mean)
Description: as §1, §2, §3, §4

MV4;11 = assay: Cell Titer Glo cell viability assay, 48 h; type: cell-based, human; details: 48 h, mean of 2 independent experiments, 0 = less than 10 nM, cell line not given, read-out: IC50 of inhibitors on cell lines, m (mean)
Description: as §1, §2, §3, §4

[1] = tested on: primary murine bone-marrow neutrophils; assay: Live cell imaging viability of primary bone-marrow neutrophils; details: G-CSF- or GM-CSF-primed; inhibitors at 1 μM; over 24 hours
Description: Using a high-throughput live cell imaging approach reported previously [15], we examined the effect of the kinase inhibitors on the viability of bone marrow neutrophils to determine their potential to cause neutropenia (Figure 2). Because G-CSF and GM-CSF are dominant regulators of granulopoiesis and neutrophil survival, and are commonly used in a clinical setting to mobilize hematopoietic stem cells into the blood and increase neutrophil production [27–31], we treated cells with these cytokines immediately prior to drug exposure. The addition of either cytokine prevents constitutive neutrophil apoptosis thereby increasing the window for detection of changes in viability induced by drug treatments.
For all above, data represent mean ± SEM from three independent samples.
Mouse bone marrow neutrophils were prepared as described [15]. Neutrophils were resuspended in phenol red-free DMEM/10% FBS for imaging studies. The purity of neutrophil preparations was routinely 96% ± 4% (Mean ± SD, n = 50) as assessed by cytology following May-Grünwald/Giemsa staining.
Kinase inhibitors were purchased from SYN kinase (Melbourne, Australia) and were used at 1 μM, unless otherwise specified, with dilutions performed in assay buffer containing 0.1% DMSO.
Viability was monitored using 2 μg/mL PI (Sigma). Images were captured every 30-60 min by the Zeiss Axiovert 200M Microscope at 37 °C/10% CO2. Quantitative analysis was performed using a custom-scripted MetaMorph (Molecular Devices) journal suite incorporating the count nuclei function, reconstruction & subtraction functions and Integrated Morphometry Analysis to select and analyze cells of interest.

Structure (SMILES) | IC50 (K562; Homo sapiens) | IC50 (EOL-1; Homo sapiens, EOL1) | IC50 (THP-1; Homo sapiens) | IC50 (JURKAT; Homo sapiens) | IC50 (KU-812; Homo sapiens, KU812) | IC50 (HL-60; Homo sapiens) | IC50 (MOLT4; Homo sapiens, MOLT-4) | IC50 (U937; Homo sapiens, U-937) | IC50 (OCI-AML3; Homo sapiens, OCI-AML-3) | IC50 (HEL.92.1.7; Homo sapiens) | IC50 (MEG-01; Homo sapiens) | IC50 (MV4;11; Homo sapiens) | also measured
Cc1c[nH]c(/C=C2\C(=O)Nc3ccccc32)c1CCC(=O)O [SU-5402] | – | – | – | – | – | – | – | – | – | – | – | – | IC50 (K562): > 10 µM; IC50 (EOL-1): 1.43 µM; IC50 (THP-1): > 10 µM; IC50 (JURKAT): > 10 µM; IC50 (KU-812): 9.28 µM; IC50 (HL-60): > 10 µM; IC50 (MOLT4): > 10 µM; IC50 (U937): > 10 µM; IC50 (OCI-AML3): > 10 µM; IC50 (HEL.92.1.7): > 10 µM; IC50 (MEG-01): > 10 µM; IC50 (MV4;11): 0.73 µM
Cc1[nH]c(/C=C2\C(=O)Nc3ccccc32)c(C)c1CCC(=O)O [SU-6668] | 8.11 µM | 0.84 µM | > 10 µM | > 10 µM | > 10 µM | > 10 µM | > 10 µM | > 10 µM | > 10 µM | > 10 µM | > 10 µM | 5.11 µM | –
CCN(CC)CCNC(=O)c1c(C)[nH]c(/C=C2\C(=O)Nc3ccc(F)cc32)c1C [Sunitinib] | 4.75 µM | 0.01 µM | 1.8 µM | 1.62 µM | 1.56 µM | 1.46 µM | 2.54 µM | 1.16 µM | 1.02 µM | 2.61 µM | 2.39 µM | 0.01 µM | –
CCc1nc(-c2cccc(C)c2)c(-c2ccnc(NC(=O)c3ccccc3)c2)s1 [TAK-715] | 7.41 µM | 2.33 µM | > 10 µM | 9.58 µM | 6.14 µM | > 10 µM | > 10 µM | 4.11 µM | > 10 µM | > 10 µM | 7.37 µM | 7.8 µM | –
Cc1cnc(Nc2ccc(OCCN3CCCC3)cc2)nc1Nc1cccc(S(=O)(=O)NC(C)(C)C)c1 [TG-101348] | – | – | – | – | – | – | – | – | – | – | – | – | effect on mouse neutrophil viability (words) [1]: cytotoxicity
Cc1cc(C(C)Nc2ccccc2)c2nc(N3CCOCC3)cc(=O)n2c1 (stereo not shown) [TGX221] | – | – | – | – | – | – | – | – | – | – | – | – | IC50 (K562): 9.16 µM; IC50 (EOL-1): 0.43 µM; IC50 (THP-1): > 10 µM; IC50 (JURKAT): 9.84 µM; IC50 (KU-812): > 10 µM; IC50 (HL-60): > 10 µM; IC50 (MOLT4): > 10 µM; IC50 (U937): 9.85 µM; IC50 (OCI-AML3): 9.72 µM; IC50 (HEL.92.1.7): > 10 µM; IC50 (MEG-01): > 10 µM; IC50 (MV4;11): 0.65 µM
CN(C)C/C=C/C(=O)Nc1cc2c(Nc3ccc(F)c(Cl)c3)ncnc2cc1O[C@H]1CCOC1 [TOVOK] | 5.72 µM | 0.68 µM | 4.31 µM | 2.11 µM | 2.71 µM | 1.8 µM | 2.37 µM | 2.06 µM | 3.36 µM | 1.94 µM | 5.02 µM | 0.44 µM | –
COc1cc2c(N3CCN(C(=O)Nc4ccc(OC(C)C)cc4)CC3)ncnc2cc1OCCCN1CCCCC1 [Tandutinib] | 8.85 µM | 0.02 µM | 7.42 µM | 4.38 µM | 6.6 µM | 7.58 µM | 9.77 µM | 7.44 µM | 4.87 µM | > 10 µM | 7.91 µM | 0.08 µM | –
NC(=O)c1ccc(N(C(N)=O)c2c(F)cccc2F)nc1-c1ccc(F)cc1F [VX702] | > 10 µM | 5.5 µM | > 10 µM | > 10 µM | > 10 µM | > 10 µM | > 10 µM | > 10 µM | > 10 µM | > 10 µM | > 10 µM | > 10 µM | –
Cc1cc(Nc2cc(N3CCN(C)CC3)nc(Sc3ccc(NC(=O)C4CC4)cc3)n2)[nH]n1 [VX-680] | 0.43 µM | 0.07 µM | 5.75 µM | 4.96 µM | 0.18 µM | 2.45 µM | 2.59 µM | 5.46 µM | 0.8 µM | 7.99 µM | 0.53 µM | 0.05 µM | –
COc1cc2c(Nc3ccc(Br)cc3F)ncnc2cc1OCC1CCN(C)CC1 [Vandetanib] | 2.73 µM | 0.19 µM | > 10 µM | 6.28 µM | 0.82 µM | 7.28 µM | 6.79 µM | 9.46 µM | > 10 µM | > 10 µM | 1.51 µM | 0.86 µM | –
Nc1ccc(C(=O)Nc2cccc(-c3nc(N4CCOCC4)c4oc5ncccc5c4n3)c2)cn1 [YM201636] | – | – | – | – | – | – | – | – | – | – | – | – | IC50 (K562): 9.65 µM; IC50 (EOL-1): 5.88 µM; IC50 (THP-1): 8.78 µM; IC50 (JURKAT): 3.94 µM; IC50 (KU-812): 4.28 µM; IC50 (HL-60): 4.82 µM; IC50 (MOLT4): 6.99 µM; IC50 (U937): 2.39 µM; IC50 (OCI-AML3): 3.88 µM; IC50 (HEL.92.1.7): 7.14 µM; IC50 (MEG-01): 9.12 µM; IC50 (MV4;11): 7.33 µM
